Experimental data taken from ChEMBL document CHEMBL1201862, “PubChem BioAssay data set” (2004).
Calls of active or inactive are those of the source.

Tests used:
Cytochrome P450 2C9 = Cytochrome P450 2C9 (Homo sapiens, UniProt P11712)
[1] = HEK-293T cell viability reduction – luminescence, B-cell screen hits, cytotoxicity control for BCR NF-kB inhibitor project, dose response (AID 489021); assay type: functional, cell-based;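 note: HEK-293T cells carrying an NF-kB luciferase reporter; cells exposed to compound for about 14 hours before viability readout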
[2] = HGIII-sPLA2 enzyme inhibition potency – biochemical, QFRET, IC50, dose response (AID 743457);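 note: green fluorescence rise as the enzyme cleaves BODIPY PC-A2 in liposomes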
[3] = blockers of HIV-1 ZM109 envelope-driven cell-cell fusion – HeLa effector, CEM target cells, luciferase, cherry-pick, dose response (AID 652058); assay type: functional, cell-based;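 note: luciferase signal from HIV-1 Env mediated cell-cell fusion of effector and target cells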
[4] = HIV-1 AD8 envelope cell-cell fusion blockers – cherry-pick, dose response (AID 652062); assay type: functional, cell-based;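 note: luciferase signal from cell-cell fusion driven by HIV-1 clade B AD8 Env; potency is for inhibitors of fusion seen as a drop in luminescence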
cells = assay type: functional
[5] = target: Heat shock protein HSP 90-alpha (Homo sapiens, UniProt P07900); assay type: functional, organism-based
[6] = test system: Streptococcus sp. 'group A'; assay: Streptococcus pyogenes SK(-)GAS viability under kanamycin – luminescence, BacTiterGlo, confirmation, counter-screen for streptokinase expression inhibitor project, dose response (AID 1900); assay type: functional, organism-based
Streptokinase A = target: T1, Streptokinase A (Streptococcus pyogenes serotype M1, UniProt P10520); assay: viability-normalized secreted streptokinase activity reduction – plasminogen activation absorbance, OD405, dose response (AID 1914); assay type: functional, Streptococcus pyogenes M1 GAS;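 note: secreted streptokinase activity via plasminogen activation per viability signal from cell pellet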
T1 sequence (P10520 whole entry): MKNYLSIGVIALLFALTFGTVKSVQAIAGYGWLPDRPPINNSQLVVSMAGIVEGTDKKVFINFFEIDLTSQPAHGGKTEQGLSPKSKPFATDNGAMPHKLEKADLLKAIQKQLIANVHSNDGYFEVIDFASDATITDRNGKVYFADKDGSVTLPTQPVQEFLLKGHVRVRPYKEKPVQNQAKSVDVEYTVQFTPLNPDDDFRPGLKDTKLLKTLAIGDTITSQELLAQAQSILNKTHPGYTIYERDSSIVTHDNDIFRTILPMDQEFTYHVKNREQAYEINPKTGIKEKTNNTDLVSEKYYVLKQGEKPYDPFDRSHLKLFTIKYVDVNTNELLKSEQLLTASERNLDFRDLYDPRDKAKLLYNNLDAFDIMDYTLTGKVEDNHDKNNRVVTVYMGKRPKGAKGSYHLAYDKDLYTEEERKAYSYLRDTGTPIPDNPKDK

[7] = microbe, parasite or virus in culture; assay type: functional; conditions: Mycobacterium tuberculosis
Streptococcus = assay: GAS UMAA2166 growth inhibition – luminescence, BacTiterGlo, counter-screen for streptokinase expression inhibitor project, dose response (AID 1915); assay type: functional, organism-based;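 note: potency for reduction of bacterial viability or growth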
[8] = Luminescence Cell-Based Dose Retest to Confirm Inhibitors of Cancer Stem Cells. [Related pubchem assays (depositor defined):AID2717, AID2721]; assay type: functional; conditions: Homo sapiens
Coagulation factor XII = target: T2, Coagulation factor XII (Homo sapiens, UniProt P00748); assay type: functional;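 note: activated factor XIIa alpha cleaving a fluorogenic AMC peptide substrate; inhibitor potency from loss of enzyme activity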
T2 sequence (P00748 whole entry): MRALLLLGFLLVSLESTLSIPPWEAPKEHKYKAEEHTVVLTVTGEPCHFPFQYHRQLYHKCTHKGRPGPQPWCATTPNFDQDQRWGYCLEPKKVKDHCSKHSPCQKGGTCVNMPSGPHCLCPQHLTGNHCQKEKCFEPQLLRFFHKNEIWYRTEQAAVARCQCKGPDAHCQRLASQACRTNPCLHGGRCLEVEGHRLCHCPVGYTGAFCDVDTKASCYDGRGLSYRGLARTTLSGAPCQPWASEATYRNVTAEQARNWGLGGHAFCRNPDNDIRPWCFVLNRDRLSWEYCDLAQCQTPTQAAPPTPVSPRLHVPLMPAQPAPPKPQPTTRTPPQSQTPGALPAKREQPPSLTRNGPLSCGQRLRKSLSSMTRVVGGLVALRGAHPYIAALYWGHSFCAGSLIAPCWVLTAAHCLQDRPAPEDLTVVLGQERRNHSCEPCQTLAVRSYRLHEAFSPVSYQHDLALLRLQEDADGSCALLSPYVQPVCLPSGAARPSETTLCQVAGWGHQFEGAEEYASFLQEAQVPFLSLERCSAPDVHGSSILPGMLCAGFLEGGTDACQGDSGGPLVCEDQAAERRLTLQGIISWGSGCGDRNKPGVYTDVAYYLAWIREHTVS

Mu-type opioid receptor = Mu-type opioid receptor (Homo sapiens, UniProt P35372); assay type: functional, cell-based;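 note: U2OS cells with beta-arrestin recruitment to OPRM1 by beta-gal complementation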
Mu-type opioid receptor, sequence (P35372 whole entry): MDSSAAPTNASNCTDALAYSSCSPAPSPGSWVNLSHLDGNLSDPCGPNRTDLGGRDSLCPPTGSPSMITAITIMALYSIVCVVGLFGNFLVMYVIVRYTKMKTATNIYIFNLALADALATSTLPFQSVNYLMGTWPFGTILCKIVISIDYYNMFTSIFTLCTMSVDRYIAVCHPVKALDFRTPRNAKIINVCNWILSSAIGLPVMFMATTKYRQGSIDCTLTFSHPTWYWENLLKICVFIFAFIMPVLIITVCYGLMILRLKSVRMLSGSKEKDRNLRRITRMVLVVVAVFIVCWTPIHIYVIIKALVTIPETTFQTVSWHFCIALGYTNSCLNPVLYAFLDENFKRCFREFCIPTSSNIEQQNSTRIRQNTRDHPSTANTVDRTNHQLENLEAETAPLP

[9] = target: 5-hydroxytryptamine receptor 2A (Mus musculus, UniProt P35363); assay type: functional, cell-based;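 note: CHO-K1 cells with tagged receptor and beta-arrestin; agonist potency measured as compound-induced activation of the receptor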
5-hydroxytryptamine receptor 2A, sequence (P35363 whole entry): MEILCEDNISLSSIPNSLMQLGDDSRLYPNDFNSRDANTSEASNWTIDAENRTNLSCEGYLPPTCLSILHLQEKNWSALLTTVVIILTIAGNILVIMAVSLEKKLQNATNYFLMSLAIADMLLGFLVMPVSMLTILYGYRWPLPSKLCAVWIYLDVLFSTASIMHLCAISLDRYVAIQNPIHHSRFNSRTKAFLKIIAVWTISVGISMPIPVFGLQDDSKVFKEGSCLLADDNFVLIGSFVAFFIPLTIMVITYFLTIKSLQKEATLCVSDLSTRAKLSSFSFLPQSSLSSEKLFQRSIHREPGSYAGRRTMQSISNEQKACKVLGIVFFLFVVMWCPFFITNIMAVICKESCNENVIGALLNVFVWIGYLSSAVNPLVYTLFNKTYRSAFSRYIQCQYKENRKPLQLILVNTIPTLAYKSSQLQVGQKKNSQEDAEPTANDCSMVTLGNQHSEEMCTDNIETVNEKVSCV

[10] = target: FAD-linked sulfhydryl oxidase ALR (Homo sapiens, UniProt P55789); assay: ALR-catalysed DTT oxidation blockers – biochemical, H2O2 detection, luminescence, cherry-pick, dose response (AID 493248)
FAD-linked sulfhydryl oxidase ALR, sequence (P55789 whole entry, the tested form may be a part): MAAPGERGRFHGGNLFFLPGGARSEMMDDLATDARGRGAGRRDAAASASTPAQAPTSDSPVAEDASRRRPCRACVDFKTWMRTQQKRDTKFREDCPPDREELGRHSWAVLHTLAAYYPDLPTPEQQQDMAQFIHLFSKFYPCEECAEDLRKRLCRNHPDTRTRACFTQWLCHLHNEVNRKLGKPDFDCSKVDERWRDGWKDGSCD

[11] = blockers of HIV-1 envelope-mediated cell-cell fusion – cherry-pick, dose response (AID 652057); assay type: functional, cell-based
[12] = off-target signal loss in HeLa-CEM21 co-culture – HeLa F-luc CTL cells, cherry-picked, counter-screen for HIV-1 Env fusion inhibitor project, dose response (AID 652040); assay type: functional, cell-based;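 note: potency for signal decrease marking cytotoxic or nonspecific inhibition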
[13] = reduction of Shn3 3'UTR-driven luciferase in osteoblasts – cell-based, Clone20 osteoblasts, firefly luciferase, cherry-picked, dose response (AID 624132); assay type: functional;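 note: firefly luciferase luminescence from reporter carrying the Shn3 3'UTR in osteoblasts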
[14] = loss of viability in HepG2 cells – cell-based, CellTiter-Glo, cherry-picked, cytotoxicity control for Shn3 inhibitor project, dose response (AID 624134); assay type: functional
[15] = non-specific 3'UTR reporter inhibition in Clone20-Shn3RL – cell-based, Renilla luciferase, cherry-picked, counter-screen for Shn3 inhibitor project, dose response (AID 624133); assay type: functional
[16] = target: T3, Mannose-6-phosphate isomerase (Homo sapiens, UniProt P34949); assay: MPI inhibition at elevated mannose 6-phosphate – biochemical, fluorescence intensity, high mannose 6-phosphate, primary screen (AID 1220)
T3 sequence (P34949 whole entry): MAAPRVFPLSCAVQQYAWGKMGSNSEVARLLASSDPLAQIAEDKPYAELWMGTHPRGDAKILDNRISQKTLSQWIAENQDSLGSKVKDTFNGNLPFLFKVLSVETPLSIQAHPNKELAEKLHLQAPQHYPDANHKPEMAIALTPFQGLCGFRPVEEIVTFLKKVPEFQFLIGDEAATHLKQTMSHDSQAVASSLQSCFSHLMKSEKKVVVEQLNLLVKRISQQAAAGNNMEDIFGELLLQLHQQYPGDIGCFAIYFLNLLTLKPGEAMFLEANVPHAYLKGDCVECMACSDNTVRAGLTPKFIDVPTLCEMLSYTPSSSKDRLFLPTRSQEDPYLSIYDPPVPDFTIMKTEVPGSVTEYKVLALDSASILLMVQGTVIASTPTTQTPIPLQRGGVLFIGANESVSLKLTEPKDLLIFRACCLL

[17] = target: T4, Corticotropin-releasing factor receptor 2/Corticotropin-releasing factor-binding protein (Homo sapiens, UniProt P24387+Q13324); assay: Dose Response confirmation of uHTS hits for small molecule antagonists of the CRF-binding protein and CRF-R2 receptor complex.; assay type: functional; conditions: read-out: IC50_Mean
T4 sequence (Q13324 whole entry): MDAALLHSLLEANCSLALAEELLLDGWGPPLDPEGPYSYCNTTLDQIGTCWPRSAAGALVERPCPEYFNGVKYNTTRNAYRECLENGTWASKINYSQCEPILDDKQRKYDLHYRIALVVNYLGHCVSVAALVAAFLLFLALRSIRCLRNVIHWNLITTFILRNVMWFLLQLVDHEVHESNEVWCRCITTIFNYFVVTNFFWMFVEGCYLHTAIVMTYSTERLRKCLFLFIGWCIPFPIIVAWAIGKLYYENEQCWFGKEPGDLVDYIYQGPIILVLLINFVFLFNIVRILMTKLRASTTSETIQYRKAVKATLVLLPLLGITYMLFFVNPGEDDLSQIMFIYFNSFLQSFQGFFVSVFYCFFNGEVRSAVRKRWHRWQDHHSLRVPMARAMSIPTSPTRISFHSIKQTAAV
T4 sequence (P24387 whole entry): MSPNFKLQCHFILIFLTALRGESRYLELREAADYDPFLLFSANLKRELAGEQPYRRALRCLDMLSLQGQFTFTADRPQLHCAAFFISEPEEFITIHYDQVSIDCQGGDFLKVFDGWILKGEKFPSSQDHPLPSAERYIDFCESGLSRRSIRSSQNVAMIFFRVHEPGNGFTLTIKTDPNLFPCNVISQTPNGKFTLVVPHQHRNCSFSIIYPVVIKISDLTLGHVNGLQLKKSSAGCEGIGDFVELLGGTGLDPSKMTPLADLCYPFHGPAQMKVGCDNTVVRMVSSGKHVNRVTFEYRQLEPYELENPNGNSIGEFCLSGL

[18] = target: T4, Corticotropin-releasing factor receptor 2/Corticotropin-releasing factor-binding protein; assay: activators of CRF receptor 2 with binding protein – uHTS hits, confirmation (AID 602473); assay type: functional; conditions: read-out: EC50_Mean
[19] = blockers of CRF-binding protein–CRF-R2 complex – cell-based, uHTS hits, 384-well, dose response (AID 651639); assay type: functional, Homo sapiens; conditions: read-out: IC50_Mean
Cytochrome P450 1A2 = target: T5, Cytochrome P450 1A2 (Homo sapiens, UniProt P05177);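 note: PubChem cytochrome P450 panel assay, CYP1A2 panel member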
T5 sequence (P05177 whole entry): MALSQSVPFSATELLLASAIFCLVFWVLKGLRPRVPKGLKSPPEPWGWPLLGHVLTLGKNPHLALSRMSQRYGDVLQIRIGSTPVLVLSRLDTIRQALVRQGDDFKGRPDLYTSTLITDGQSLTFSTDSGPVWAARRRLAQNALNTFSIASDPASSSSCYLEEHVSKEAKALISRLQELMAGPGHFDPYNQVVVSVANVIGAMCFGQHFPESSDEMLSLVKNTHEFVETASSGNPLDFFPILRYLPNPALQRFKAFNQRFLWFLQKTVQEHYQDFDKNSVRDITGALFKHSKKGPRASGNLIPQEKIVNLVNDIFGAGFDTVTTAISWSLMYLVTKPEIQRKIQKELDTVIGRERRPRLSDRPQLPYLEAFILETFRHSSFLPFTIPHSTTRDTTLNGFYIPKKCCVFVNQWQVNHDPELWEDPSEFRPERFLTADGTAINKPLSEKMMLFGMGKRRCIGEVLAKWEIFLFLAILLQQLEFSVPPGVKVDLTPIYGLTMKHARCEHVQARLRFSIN

Cytochrome P450 3A4 = Cytochrome P450 3A4 (Homo sapiens, UniProt P08684);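 note: CYP3A4 tested as one member of a cytochrome P450 panel screen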
Cytochrome P450 3A4, sequence (P08684 whole entry): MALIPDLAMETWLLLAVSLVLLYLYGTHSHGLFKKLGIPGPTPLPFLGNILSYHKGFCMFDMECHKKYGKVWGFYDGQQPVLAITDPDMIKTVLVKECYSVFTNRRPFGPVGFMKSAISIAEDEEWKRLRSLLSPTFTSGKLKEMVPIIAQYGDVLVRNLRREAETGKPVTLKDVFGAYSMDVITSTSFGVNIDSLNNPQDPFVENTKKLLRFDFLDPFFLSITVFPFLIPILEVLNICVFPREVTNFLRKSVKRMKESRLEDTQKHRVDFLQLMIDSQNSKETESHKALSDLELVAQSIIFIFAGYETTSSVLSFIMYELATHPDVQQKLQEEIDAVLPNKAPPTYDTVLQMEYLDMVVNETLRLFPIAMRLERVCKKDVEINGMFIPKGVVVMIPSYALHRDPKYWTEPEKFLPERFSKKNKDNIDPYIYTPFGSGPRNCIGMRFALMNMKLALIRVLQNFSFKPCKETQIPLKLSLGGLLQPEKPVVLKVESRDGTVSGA

Cytochrome P450 2C9, sequence (P11712 whole entry): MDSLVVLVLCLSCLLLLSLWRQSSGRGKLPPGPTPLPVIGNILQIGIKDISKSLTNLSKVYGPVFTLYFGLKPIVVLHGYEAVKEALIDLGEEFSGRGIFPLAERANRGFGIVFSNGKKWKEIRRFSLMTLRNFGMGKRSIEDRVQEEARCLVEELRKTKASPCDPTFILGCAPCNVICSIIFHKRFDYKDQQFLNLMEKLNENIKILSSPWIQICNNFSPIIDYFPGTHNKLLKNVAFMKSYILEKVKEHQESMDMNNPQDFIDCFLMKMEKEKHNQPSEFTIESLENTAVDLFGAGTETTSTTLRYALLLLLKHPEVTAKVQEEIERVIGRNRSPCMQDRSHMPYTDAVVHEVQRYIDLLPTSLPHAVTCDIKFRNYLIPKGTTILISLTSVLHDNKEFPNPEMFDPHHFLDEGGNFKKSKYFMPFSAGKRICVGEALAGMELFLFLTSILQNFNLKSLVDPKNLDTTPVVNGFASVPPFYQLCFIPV

## CCN(CC(=O)NCc1cccs1)S(=O)(=O)c1ccc(C(C)C)cc1
Cytochrome P450 2C9
  AC50: inconclusive

## CN1C(=O)CSc2ccc(NC(=O)N3CCN(c4ccccc4)CC3)cc21
[1]
  IC50: > 80 µM (inactive)

## CCCCN=C(S)NNC(=O)c1ccc(Br)o1
[2]
  IC50: > 122 µM (inactive)

## COc1c(NC(C)=O)c2ccccc2c2ccccc12
Cytochrome P450 2C9
  AC50: inconclusive

## O=C(CN1CCN(Cc2ccc(Cl)cc2)C1=O)NCCCN1CCN(c2ccc(F)cc2)CC1
[3]
  AC50: 36 µM (active)
[4]
  AC50: 27.3 µM (active)

## O=C(OCn1nnc2ccccc2c1=O)c1ccc(N2CCOCC2)c([N+](=O)[O-])c1
cells
  IC50: 10 µM (active)

## O=C1C2C3C=CC(CNS(=O)(=O)c4ccccc4[N+](=O)[O-])(O3)C2C(=O)N1c1ccccc1 (stereo not drawn)
[5]
  AC50: 25.5 µM (active)

## Cc1cc2c(cc1C)CSC(c1c(O)ccc3ccccc13)SC2
[6]
  EC50: 1.98 µM (active)
Streptokinase A
  EC50: 3.41 µM (active)
[7]
  CC50: 23 µM (active)
Streptococcus
  EC50: 5.67 µM (active)
[8]
  AC50: 2.24 µM (active)
[5]
  AC50: 4.26 µM (active)

## CC(=O)N1CCC(N2CCN(c3ccccc3F)CC2)CC1
Coagulation factor XII
  IC50: > 50 µM (inactive)
Mu-type opioid receptor
  EC50: 92.4 µM (inactive)
[9]
  EC50: 1.16 µM (active)

## CC(=O)c1ccc(NC(=O)c2cc(CC(C)C)on2)cc1
cells
  IC50: 12 µM (active)

## Cc1ccc2c(c1)c1c3n2CCN=C3CCC1
cells
  IC50: 11.9 µM (active)

## Oc1cc2c(cc1CN1CCN(c3ncccn3)CC1)OCO2
Mu-type opioid receptor
  EC50: 92.5 µM (inactive)
[9]
  EC50: 0.106 µM (active)

## C=CCN1CCc2c(cc(O)c(O)c2Cl)C(c2ccccc2)C1 (stereo not drawn)
[10]
  AC50: 4.74 µM (active)
Mu-type opioid receptor
  EC50: 92.4 µM (inactive)
[9]
  EC50: 0.203 µM (active)

## C[C@@]12C(=O)N(Cc3ccccc3)CC(=O)N1[C@H]1c3ccccc3OC[C@@H]1[C@@H]2c1ccccc1
[11]
  AC50: 1.65 µM (active)
[3]
  AC50: 1.68 µM (active)
[12]
  AC50: 2.27 µM (active)
[4]
  AC50: 6.27 µM (active)

## O=C(c1ccco1)N1CCN(Cc2ccccc2Br)CC1
Mu-type opioid receptor
  EC50: 92.5 µM (inactive)
[9]
  EC50: 5.91 µM (active)

## O=C(OCCC12CC3CC(CC(C3)C1)C2)c1ccc(NCc2cc(O)ccc2O)cc1
[13]
  AC50: 1.82 µM (active)
[14]
  AC50: 21.7 µM (active)
[15]
  AC50: 5.97 µM (active)

## Cc1nc2c(C(=O)NCCc3ccccc3)cnn2c(O)c1Cl
[16]
  IC50: > 50 µM (not active)
[17]
  IC50: 44.5 µM (active)
[18]
  EC50: > 53 µM (inactive)
[19]
  IC50: > 20 µM (inactive)

## Cc1ccc(-n2cc(C(=O)c3ccc4ccccc4c3O)cn2)cc1
Cytochrome P450 1A2
  AC50: 1.41 µM (inconclusive)
Cytochrome P450 2C9
  AC50: inconclusive

## O=C(NCc1ccccc1)c1ccc(Cl)cc1[N+](=O)[O-]
Cytochrome P450 1A2
  AC50: 20 µM (inconclusive)
Cytochrome P450 3A4
  AC50: 22.4 µM (inconclusive)
Cytochrome P450 2C9
  AC50: inconclusive

## Cc1cc(C(=O)Nc2ccc(N3CCOCC3)cc2)c2ccccc2n1
Coagulation factor XII
  IC50: > 50 µM (inactive)
Cytochrome P450 3A4
  AC50: 15.8 µM (inconclusive)
Cytochrome P450 2C9
  AC50: inconclusive

## CCOC(=O)N1CCN(C(=O)c2ccc3c(c2)N(Cc2ccc(C)cc2)CCS3)CC1
[13]
  AC50: 6 µM (active)
[14]
  AC50: > 70 µM (inactive)
[15]
  AC50: 2.31 µM (active)
